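Method: 48-hour compound exposure of cells in 96-well plates, five concentrations, linear interpolation of endpoints. Here, GI50 denotes the concentration required for 50% inhibition of growth.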 Calls of active or inactive are those of the source. Rule as the data show it: active = GI50 up to about 1.1 µM and inactive = higher.
Columns and labels:
Assay in all cases: NCI tumour cell line growth inhibition, 48 h
[1] = test system: A498
[2] = test system: A549
[3] = test system: COLO 205
[4] = test system: HCC 2998
[5] = test system: HCT-116
[6] = test system: Malme-3M
[7] = test system: NCI-H460
[8] = test system: OVCAR-4
[9] = test system: RPMI-8226
[10] = test system: SF-268
[11] = test system: SK-MEL-28
[12] = test system: SK-OV-3
[13] = test system: SNB-19
[14] = test system: SNB-75
[15] = test system: TK-10
[16] = test system: UACC-62
[17] = test system: MOLT-4

Measured: GI50

O=C1c2ccoc2C(=O)c2oc(=O)ccc21
inactive: [1] > 59.3 µM | [2] 20.3 µM | [3] > 41.2 µM | [4] > 45.3 µM | [5] 5.31 µM | [6] 3.16 µM | [7] 18.7 µM | [8] 5.13 µM | [9] 3.67 µM | [10] 9.14 µM | [11] 5.43 µM | [12] 30.1 µM | [13] 16 µM | [14] 6.41 µM | [15] > 45.1 µM | [16] 17.1 µM

COC(=O)c1cc(O)ccc1NC(=O)c1ccc(O)cc1
inactive: [2] > 100 µM | [3] > 100 µM | [4] > 100 µM | [5] > 100 µM | [17] > 100 µM | [6] > 100 µM | [7] > 100 µM | [8] > 100 µM | [9] > 100 µM | [10] > 100 µM | [11] > 100 µM | [12] > 100 µM | [13] > 100 µM | [14] > 100 µM | [15] 82.2 µM | [16] > 100 µM

COc1c2nc(CCl)[nH]c(=O)c2c(OC)c2nc(CCl)[nH]c(=O)c12
inactive: [2] > 100 µM | [3] > 100 µM | [5] > 100 µM | [17] > 100 µM | [6] > 100 µM | [7] > 100 µM | [8] > 100 µM | [9] > 100 µM | [10] > 100 µM | [11] > 100 µM | [12] > 100 µM | [13] > 100 µM | [14] > 100 µM | [15] > 100 µM | [16] > 100 µM

COC(=O)N1CCc2c(nc(N(C)CCO)[nH]c2=O)C1
inactive: [1] > 100 µM | [2] > 100 µM | [3] > 100 µM | [4] > 100 µM | [5] > 100 µM | [17] > 100 µM | [6] > 100 µM | [7] > 100 µM | [9] > 100 µM | [10] > 100 µM | [11] > 100 µM | [12] > 100 µM | [13] > 100 µM | [14] > 100 µM | [15] > 100 µM | [16] > 100 µM

CC1(C)c2ccccc2N2O[C@@H]3C(=O)N(c4ccccc4)C(=O)[C@@H]3C21c1ccccc1 (some centres undefined)
inactive: [2] > 100 µM | [3] > 100 µM | [4] > 100 µM | [17] 47.8 µM | [6] > 100 µM | [9] 57.7 µM | [10] > 100 µM | [11] > 100 µM | [12] > 100 µM | [13] > 100 µM | [14] 84.1 µM | [15] > 100 µM | [16] > 100 µM

N#C/N=C(/NCCc1c[nH]c2ccccc12)Oc1ccccc1
inactive: [2] 60.4 µM | [3] 59 µM | [4] 44 µM | [5] 52.5 µM | [17] 37.1 µM | [7] 37.1 µM | [8] 73.3 µM | [9] 37.7 µM | [10] > 100 µM | [11] > 100 µM | [12] > 100 µM | [13] 93.5 µM | [14] 43 µM | [15] 84.5 µM | [16] 75.3 µM

CC(C)OP(=O)(NC(=S)c1ccccc1)OC(C)C
inactive: [1] 43 µM | [2] 92 µM | [3] > 100 µM | [4] > 100 µM | [5] > 100 µM | [17] 80.7 µM | [6] > 100 µM | [7] 23.4 µM | [8] > 100 µM | [10] > 100 µM | [11] > 100 µM | [12] > 100 µM | [13] > 100 µM | [14] > 100 µM | [15] > 100 µM | [16] 71.1 µM

CCC(=O)C1=C(OC(C)=O)C2Cc3c(n(C)c4ccccc34)C(C1)N2C (centres undefined)
inactive: [1] 42.9 µM | [2] 68.5 µM | [3] 34 µM | [4] 38 µM | [5] 29.9 µM | [17] 34.7 µM | [6] 48.6 µM | [7] 53 µM | [8] 28.4 µM | [10] 19 µM | [11] 71.8 µM | [12] > 100 µM | [13] > 100 µM | [14] 25.5 µM | [15] 66.1 µM | [16] 26.2 µM

CC1CCP(=O)(c2ccccc2)c2ccccc21 (centres undefined)
inactive: [1] > 100 µM | [2] > 100 µM | [3] 51.8 µM | [4] 38.8 µM | [5] 23 µM | [17] 30.8 µM | [6] > 100 µM | [7] 40.8 µM | [8] 38.5 µM | [9] 64.3 µM | [11] > 100 µM | [12] > 100 µM | [13] > 100 µM | [14] > 100 µM | [15] > 100 µM | [16] 52.8 µM

N/N=C1\C(=O)N(CCc2ccccc2)C(=O)C1C(=O)NCCc1ccccc1 (centres undefined)
inactive: [2] > 100 µM | [5] > 100 µM | [17] > 100 µM | [6] > 100 µM | [9] > 100 µM | [10] > 100 µM | [11] > 100 µM | [12] > 100 µM | [13] > 100 µM | [14] > 100 µM | [15] > 100 µM | [16] > 100 µM

CCOC1c2nc3ccccc3nc2-c2ccccc2N1C(C)=O (centres undefined)
inactive: [1] > 100 µM | [2] > 100 µM | [3] > 100 µM | [4] > 100 µM | [5] > 100 µM | [17] > 100 µM | [7] > 100 µM | [8] 74.6 µM | [9] > 100 µM | [11] > 100 µM | [12] > 100 µM | [13] > 100 µM | [14] 46.2 µM | [16] > 100 µM

CC(C)(Oc1ccc(/C=C/C(=O)c2ccc(Cl)cc2)cc1)C(=O)Nc1c(Cl)cccc1Cl
inactive: [1] 17.1 µM | [2] 31.4 µM | [3] 17.8 µM | [4] 25.4 µM | [5] 6.03 µM | [17] 6.32 µM | [6] 19.7 µM | [7] 31.6 µM | [8] 23.4 µM | [10] 28.5 µM | [11] 16.1 µM | [12] 34 µM | [13] 33.8 µM | [14] 29.4 µM | [15] 59.4 µM | [16] 17.3 µM

COc1ccc2c3c(coc13)C(CCC(=O)O)CC2 (centres undefined)
inactive: [1] > 100 µM | [2] > 100 µM | [3] > 100 µM | [4] > 100 µM | [5] > 100 µM | [7] > 100 µM | [8] > 100 µM | [11] > 100 µM | [12] > 100 µM | [13] > 100 µM | [14] 56.6 µM | [15] > 100 µM | [16] > 100 µM

From ChEMBL document CHEMBL1201862, “PubChem BioAssay data set” (2004)
